Reference: patent US8148367B2 (Takeda Pharmaceutical Company Limited, priority 2008, dated 2012)

Target: T1, Recombinant human renin (Homo sapiens, UniProt P00797)
T1 construct: isolate the active form (residues 67-406); made in house; host or cells: FreeStyle 293-F cells, transient expression of pcDNA3.1(+)/hREN
T1 sequence (P00797 67-406): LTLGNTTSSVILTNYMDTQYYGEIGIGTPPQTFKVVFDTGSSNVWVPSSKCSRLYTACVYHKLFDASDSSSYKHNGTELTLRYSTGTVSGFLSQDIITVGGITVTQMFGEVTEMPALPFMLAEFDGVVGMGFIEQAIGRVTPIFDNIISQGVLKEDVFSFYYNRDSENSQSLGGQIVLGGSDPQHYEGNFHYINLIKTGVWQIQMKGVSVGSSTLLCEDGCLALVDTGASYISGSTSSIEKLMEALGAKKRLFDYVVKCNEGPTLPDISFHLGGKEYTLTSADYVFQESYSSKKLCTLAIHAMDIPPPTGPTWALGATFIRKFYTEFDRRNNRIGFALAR
Assay: In vitro enzymatic activity assay of renin inhibitors (fluorescence, QXL520/HiLyteFluo488 peptide substrate)
Assay type: biochemical
Conditions: recombinant human renin 3 nM, 1 μM substrate, pre-incubated 10 minutes at 37° C., incubation one hour, pH 7.4, 5% DMSO; read-out: IC50 of Exemplified Compounds Against Renin

`COCCCOc1cccc(-n2c(-c3ccccc3)c(C(=O)N3CCNCC3)n(CCNS(=O)(=O)c3ccccc3)c2=O)c1` [Example 183, N-(2-(3-(3-(3-Methoxypropoxy)phenyl)-2-oxo-4-phenyl-5-(piperazine-1-carbonyl)-2,3-dihydro-1H-imidazol-1-yl)ethyl)benzenesulfonamide] was tested, and the IC50 was > 1 µM.

With `O=C(c1c(-c2ccccc2)n(-c2cccc(N3CCOCC3)c2)c(=O)n1CCCNS(=O)(=O)c1ccccc1)N1CCNCC1` [Example 175, N-(3-(3-(3-Morpholinophenyl)-2-oxo-4-phenyl-5-(piperazine-1-carbonyl)-2,3-dihydro-1H-imidazol-1-yl)propyl)benzenesulfonamide] the IC50 was 0.1 to 0.5 µM.

`O=C(c1[nH]c(=O)n(-c2ccccc2)c1C1CC1)N1CCNCC1` [Example 24, 5-Cyclopropyl-1-phenyl-4-(piperazine-1-carbonyl)-1H-imidazol-2(3H)-one] was tested, and the IC50 was > 1 µM.

For `Cc1ccccc1-n1c(-c2ccccc2)c(C(=O)N2CCNCC2)n(CCCNS(=O)(=O)C(C)C)c1=O` [Example 239, N-(3-(2-oxo-4-phenyl-5-(piperazine-1-carbonyl)-3-o-tolyl-2,3-dihydro-1H-imidazol-1-yl)propyl)propane-2-sulfonamide], the IC50 was > 1 µM.

With `COc1ccc(C(=O)NCCn2c(C(=O)N3CCNCC3)c(-c3ccccc3)n(-c3ccccc3C)c2=O)cc1` [Example 235, 4-Methoxy-N-(2-(2-oxo-4-phenyl-5-(piperazine-1-carbonyl)-3-o-tolyl-2,3-dihydro-1H-imidazol-1-yl)ethyl)benzamide] the IC50 was 0.5 to 1 µM.

For `O=C(c1c(-c2ccccc2)n(-c2cccc(N3CCOCC3)c2)c(=O)n1CCNS(=O)(=O)c1ccccc1)N1CCNCC1` [Example 185, N-(2-(3-(3-Morpholinophenyl)-2-oxo-4-phenyl-5-(piperazine-1-carbonyl)-2,3-dihydro-1H-imidazol-1-yl)ethyl)benzenesulfonamide], the IC50 was > 1 µM.

`COc1ccccc1-n1c(-c2ccccc2)c(C(=O)N2CCNCC2)n(CCCNS(=O)(=O)c2ccccc2)c1=O` [Example 161, N-(3-(3-(2-Methoxyphenyl)-2-oxo-4-phenyl-5-(piperazine-1-carbonyl)-2,3-dihydro-1H-imidazol-1-yl)propyl)benzenesulfonamide] was tested, and the IC50 was 0.1 to 0.5 µM.

In the case of `CCOC(=O)NCCn1c(C(=O)N2CCNCC2)c(-c2ccccc2)n(-c2ccccc2C)c1=O` [Example 250, Ethyl 2-(2-oxo-4-phenyl-5-(piperazine-1-carbonyl)-3-o-tolyl-2,3-dihydro-1H-imidazol-1-yl)ethylcarbamate], the IC50 is reported as > 1 µM.

In the case of `Cc1ccccc1-n1c(-c2ccccc2)c(C(=O)N2CCNCC2)n(CCNC(=O)OCc2ccccc2)c1=O` [Example 251, Benzyl 2-(2-oxo-4-phenyl-5-(piperazine-1-carbonyl)-3-o-tolyl-2,3-dihydro-1H-imidazol-1-yl)ethylcarbamate], the IC50 is reported as > 1 µM.

For `Cn1c(C(=O)N2CCNCC2)c(-c2ccccc2)n(C2CCCCC2)c1=O` [Example 60, 1-Cyclohexyl-3-methyl-5-phenyl-4-(piperazine-1-carbonyl)-1H-imidazol-2(3H)-one], the IC50 was > 1 µM.

Work on `O=C(Nc1ccccc1-n1c(-c2ccccc2)c(C(=O)N2CCNC[C@H]2Cc2ccccc2)[nH]c1=O)C1CC1` [Example 120, (R)—N-(2-(4-(2-Benzylpiperazine-1-carbonyl)-2-oxo-5-phenyl-2,3-dihydro-1H-imidazol-1-yl)phenyl)cyclopropanecarboxamide] yielded an IC50 of 0.1 to 0.5 µM.

`CN1CCOc2ccc(-n3c(-c4ccccc4)c(C(=O)N4CCNC[C@H]4Cc4ccccc4)[nH]c3=O)cc21` [Example 135, (R)-4-(2-Benzylpiperazine-1-carbonyl)-1-(4-methyl-3,4-dihydro-2H-benzo[b][1,4]oxazin-6-yl)-5-phenyl-1H-imidazol-2(3H)-one] was tested, and the IC50 was < 0.1 µM.

For `CC(C)CC(=O)NCCn1c(C(=O)N2CCNCC2)c(-c2ccccc2)n(-c2cccc(N3CCOCC3)c2)c1=O` [Example 178, 3-Methyl-N-(2-(3-(3-morpholinophenyl)-2-oxo-4-phenyl-5-(piperazine-1-carbonyl)-2,3-dihydro-1H-imidazol-1-yl)ethyl)butanamide], the IC50 was > 1 µM.
